# Tests used:
# [1] = Metabolic (microsomal) stability assay, human liver microsomes (HLM); assay type: in vitro ADME; conditions: 1 μM, predicted clearance as percent of liver blood flow
# Procedure: The metabolic degradation of the test compound is assayed at 37° C. with pooled liver microsomes (mouse (MLM), rat (RLM) or human (HLM)). The final incubation volume of 48 μL per time point contains TRIS buffer (pH 7.5; 0.1 M), magnesium chloride (6.5 mM), microsomal protein (0.5 mg/mL for mouse/rat, 1 mg/mL for human specimens) and the test compound at a final concentration of 1 μM. Following a short preincubation period at 37° C., the reactions are initiated by addition of 12 μL beta-nicotinamide adenine dinucleotide phosphate, reduced form (NADPH, 10 mM) and terminated by transferring an aliquot into solvent after different time points (0, 5, 15, 30, 60 min). Additionally, the NADPH-independent degradation is monitored in incubations without NADPH, terminated at the last time point by addition of acetonitrile. The quenched incubations are pelleted by centrifugation (4,000 rpm, 15 min). An aliquot of the supernatant is assayed by LC-MS/MS to quantify the concentration of parent compound in the individual samples.
# In vitro intrinsic clearance (CLint, in vitro) is calculated from the time course of the disappearance of the test drug during the microsomal incubation. Each plot is fitted to the first-order elimination rate constant as C(t)=C0*exp(−ke*t), where C(t) and C0 are the concentration of unchanged test drug at incubation time t and that at preincubation and ke is the disappearance rate constant of the unchanged drug. Subsequently, CLint, in vitro (μL min^−1·amount protein) values are converted to predicted CLint, in vitro (mL min^−1·kg^−1) from incubation parameters according to the equation CLint, in vitro=CLint, in vitro×(incubation volume (ml)/amount protein (mg))×(amount protein (mg)/g liver tissue)×(liver weight/body wt.). For better across species comparison the predicted clearance is expressed as percent of the liver blood flow [% QH](mL min^−1·kg^−1) in the individual species. In general, high stability (corresponding to low % QH) of the compounds across species is desired.
# NCI-H358 cells = test: NCI-H358 CTG proliferation assay (120 h) (NSCLC, G12C); assay type: cell-based; conditions: Homo sapiens
# Procedure: Additional Proliferation Assays with Mutant Cancer Cell Lines • NCI-H358 CTG proliferation assay (120 h) (NSCLC, G12C)
# NCI-H358 cells (ATCC No. CRL-5807) are dispensed into black 384-well plates, flat and clear bottom (Greiner, PNr. 781091) at a density of 200 cells per well in 60 μl RPMI-1640 ATCC-Formulation (Gibco #A10491)+10% FCS (fetal calf serum). […] For the TO time point measurement, untreated cells are analyzed at the time of compound addition. Plates are incubated for 120 h, and cell viability is measured using CellTiter-Glo luminescent cell viability reagent (Promega product code G7570). Viability (stated as percent of control) is defined as relative luminescence units RLU of each well divided by the RLU of cells in DMSO controls.
# AsPC-1 cells = test: AsPC-1 CTG proliferation assay (120 h) (pancreatic cancer, G12D); assay type: cell-based; conditions: Homo sapiens, ASPC1
# Procedure: The CTG assay is designed to measure quantitatively the proliferation of AsPC-1 cells (ATCC CRL-5985), using the CellTiter Glow Assay Kit (Promega G7571). Cells are grown in RPMI medium (ATCC) supplemented with Fetal Calf Serum (Life Technologies, Gibco BRL, Cat. No. 10270-106). On “day 0” 2000 AsPC-1 cells are seeded in 60 μL RPMI ATCC+10% FCS+ Penstrep in a 384-well plate, flat and clear bottom (Greiner, PNr. 781091). Cells are then incubated in the plates at 37° C. in a CO2 incubator overnight. On day 1, compounds (10 mM stock in DMSO) are added with the ECHO acoustic liquid handler system (Beckman Coulter), including DMSO controls. Plates are incubated for 120 h, and cell viability is measured using CellTiter-Glo luminescent cell viability reagent (Promega product code G7570). Viability (stated as percent of control) is defined as relative luminescence units RLU of each well divided by the RLU of cells in DMSO controls.
# KRAS G12V Ba/F3 = KRAS G12V Ba/F3 (Homo sapiens, UniProt P01116, G12V, cells depend on it); test: Ba/F3 proliferation assay, KRAS G12V; assay type: cell-based; conditions: 72 h, AlamarBlue, read-out: KRAS G12V Ba/F3 IC50
# Chain of KRAS G12V Ba/F3 (P01116 whole entry G12V, canonical isoform): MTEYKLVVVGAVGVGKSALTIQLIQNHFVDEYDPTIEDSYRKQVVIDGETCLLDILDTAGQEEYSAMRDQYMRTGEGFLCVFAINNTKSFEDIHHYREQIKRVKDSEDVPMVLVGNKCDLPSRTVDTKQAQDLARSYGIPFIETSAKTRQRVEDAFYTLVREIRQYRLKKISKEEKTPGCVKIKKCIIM
# Procedure: Plasmids containing KRASG12 mutants(i.e. G12D, G12C, G12V) are obtained from GeneScript. To generate KRASG12-dependent Ba/F3 models, Ba/F3 cells are transduced with retroviruses containing vectors that harbor KRASG12 isoforms. Platinum-E cells (Cell Biolabs) are used for retrovirus packaging. Retrovirus is added to Ba/F3 cells. To ensure infection, 4 μg/mL polybrene is added and cells are spinfected. […] Cells with an infection efficiency of 10% to 20% are further cultivated and puromycin selection with 1 μg/mL is initiated. As a control, parental Ba/F3 cells are used to show selection status. Selection is considered successful when parental Ba/F3 cells cultures died. To evaluate the transforming potential of KRASG12 mutations, the growth medium is no longer supplemented with IL-3. Ba/F3 cells harboring the empty vector are used as a control. Approximately ten days before conducting the experiments, puromycin is left out.
# Compounds are added using an Access Labcyte Workstation with a Labcyte Echo 550 or 555 accoustic dispenser. All treatments are performed in technical duplicates. […] AlamarBlue™ (ThermoFisher), a viability stain, is added and fluorescence measured in the PerkinElmer Envision HTS Multilabel Reader. The raw data are imported into and analyzed with the Boehringer Ingelheim proprietary software MegaLab (curve fitting based on the program PRISM, GraphPad Inc.).
Compound,HLM QH [%] [1] [%],IC50 (NCI-H358 cells) [nM],IC50 (AsPC-1 cells) [nM],GI50 (KRAS G12V Ba/F3) [nM]
"C[C@H](Oc1cc(O[C@H]2CNC(C)(C)C2)nc(-c2noc3c2CCC[C@@]32CCCc3sc(N)c(C#N)c32)n1)[C@@H]1CCCN1C (single isomer, unassigned) [II-8]",<24,1180,1720,869
C[C@H](Oc1cc(Oc2nccs2)nc(-c2onc3c2CCC[C@@]32CCCc3sc(N)c(C#N)c32)n1)[C@@H]1CCCN1C [Example I-1],44,–,2500,3
C[C@H](Oc1cc(Oc2cccnc2)nc(-c2onc3c2CCC[C@@]32CCCc3sc(N)c(C#N)c32)n1)[C@@H]1CCCN1C [Example I-2],70,–,1310,2
C[C@H](Oc1cc(Oc2cncnc2)nc(-c2onc3c2CCC[C@@]32CCCc3sc(N)c(C#N)c32)n1)[C@@H]1CCCN1C [Example I-3],69,–,682,2
C[C@H](Oc1cc(N[C@H]2CCOC2)nc(-c2onc3c2CCC[C@@]32CCCc3sc(N)c(C#N)c32)n1)[C@@H]1CCCN1C [Example I-4],26,2280,9470,46
COC[C@H](C)Nc1cc(O[C@@H](C)[C@@H]2CCCN2C)nc(-c2onc3c2CCC[C@@]32CCCc3sc(N)c(C#N)c32)n1 [Example I-5],<24,–,–,67
C[C@H](Oc1cc(Nc2ccccn2)nc(-c2onc3c2CCC[C@@]32CCCc3sc(N)c(C#N)c32)n1)[C@@H]1CCCN1C [Example I-6],<24,1360,3360,14
C[C@H](Oc1cc(Sc2ncccn2)nc(-c2onc3c2CCC[C@@]32CCCc3sc(N)c(C#N)c32)n1)[C@@H]1CCCN1C [Example I-7],38,5620,10300,31
C[C@H](Oc1cc(OCC2(N(C)C)COC2)nc(-c2onc3c2CCC[C@@]32CCCc3sc(N)c(C#N)c32)n1)[C@@H]1CCCN1C [Example I-8],30,76,272,85
C[C@H](Oc1cc(Oc2cncnc2)nc(-c2noc3c2CCC[C@@]32CCCc3sc(N)c(C#N)c32)n1)[C@@H]1CCCN1C [II-1],<24,178,699,4
C[C@H](Oc1cc(Oc2nccs2)nc(-c2noc3c2CCC[C@@]32CCCc3sc(N)c(C#N)c32)n1)[C@@H]1CCCN1C [II-2],46,115,1840,4
C[C@H](Oc1cc(Oc2ccon2)nc(-c2noc3c2CCC[C@@]32CCCc3sc(N)c(C#N)c32)n1)[C@@H]1CCCN1C [II-3],70,275,1980,9
C[C@H](Oc1cc(O[C@H]2CCOC2)nc(-c2noc3c2CCC[C@@]32CCCc3sc(N)c(C#N)c32)n1)[C@@H]1CCCN1C [II-4],59,193,2750,6
COCCOc1cc(O[C@@H](C)[C@@H]2CCCN2C)nc(-c2noc3c2CCC[C@@]32CCCc3sc(N)c(C#N)c32)n1 [II-5],31,339,2550,7
C[C@H](Oc1cc(OCCO)nc(-c2noc3c2CCC[C@@]32CCCc3sc(N)c(C#N)c32)n1)[C@@H]1CCCN1C [II-6],40,165,1760,7
C[C@H](Oc1cc(Oc2cnccn2)nc(-c2noc3c2CCC[C@@]32CCCc3sc(N)c(C#N)c32)n1)[C@@H]1CCCN1C [II-7],72,–,3000,3
C[C@H](Oc1cc(O[C@@H]2CNC2(C)C)nc(-c2noc3c2CCC[C@@]32CCCc3sc(N)c(C#N)c32)n1)[C@@H]1CCCN1C [II-9],<24,69,49,161
C[C@H](Oc1cc(N(C)C)nc(-c2noc3c2CCC[C@@]32CCCc3sc(N)c(C#N)c32)n1)[C@@H]1CCCN1C [II-10],<24,–,1940,43
C[C@H](Oc1cc(NCC2COC2)nc(-c2noc3c2CCC[C@@]32CCCc3sc(N)c(C#N)c32)n1)[C@@H]1CCCN1C [II-11],36,–,2270,29
C[C@H](Oc1cc(Nc2nccs2)nc(-c2noc3c2CCC[C@@]32CCCc3sc(N)c(C#N)c32)n1)[C@@H]1CCCN1C [II-12],<24,819,2920,11
C[C@H](Oc1cc(Nc2ncco2)nc(-c2noc3c2CCC[C@@]32CCCc3sc(N)c(C#N)c32)n1)[C@@H]1CCCN1C [II-13],<24,146,966,10
C[C@H](Oc1cc(Nc2cnccn2)nc(-c2noc3c2CCC[C@@]32CCCc3sc(N)c(C#N)c32)n1)[C@@H]1CCCN1C [II-14],<24,558,3180,7
C[C@H](Oc1cc(Nc2ccncn2)nc(-c2noc3c2CCC[C@@]32CCCc3sc(N)c(C#N)c32)n1)[C@@H]1CCCN1C [II-15],<24,123,3550,12
C[C@H](Oc1cc(Nc2ccccn2)nc(-c2noc3c2CCC[C@@]32CCCc3sc(N)c(C#N)c32)n1)[C@@H]1CCCN1C [II-16],42,440,–,11
C[C@H](Oc1cc(N(C)CCN(C)C)nc(-c2noc3c2CCC[C@@]32CCCc3sc(N)c(C#N)c32)n1)[C@@H]1CCCN1C [II-20],<24,–,3580,303
C[C@H](Oc1cc(OCC2(N(C)C)CC2)nc(-c2noc3c2CCC[C@@]32CCCc3sc(N)c(C#N)c32)n1)[C@@H]1CCCN1C [II-21],48,–,277,237
C[C@H](Oc1cc(OCC2(N(C)C)COC2)nc(-c2noc3c2CCC[C@@]32CCCc3sc(N)c(C#N)c32)n1)[C@@H]1CCCN1C [II-22],53,–,298,35
COc1c(OCC2(N(C)C)COC2)nc(-c2noc3c2CCC[C@@]32CCCc3sc(N)c(C#N)c32)nc1O[C@@H](C)[C@@H]1CCCN1C [II-25],46,–,571,137
